According to PubChem BioAssay AID2060899 (Molecular Pharmacology Branch, DTP, NCI, 2025):
Values belong to the molecule of their own block, whether it stands above or below them.

Tested on: 565726-208-R1-J5-PDC complex spheroids, growth inhibition
Experiment: Anticancer human tumor 565726-208-R1-J5-PDC patient-derived pancreatic adenocarcinoma cell line growth inhibition [RAS]
Settings: for IC50: curve of first compound; for viability, T/C: stronger effect = lower value
Outline: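 Multi-cell-type spheroids: tumor cells plus HUVEC endothelial cells and mesenchymal stem cells. RAS-pathway inhibitors were combined with targeted agents, each dosed in half-log steps down from clinical Cmax, or from 10 microM when Cmax was unknown.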

[1] = second compound 0.000949 µM, first compound 0.0316 µM
[2] = second compound 0.000949 µM, first compound 0.1 µM
[3] = second compound 0.000949 µM, first compound 0.316 µM
[4] = second compound 0.000949 µM, first compound 1 µM
[5] = second compound 0.003 µM, first compound 0.0316 µM
[6] = second compound 0.003 µM, first compound 0.1 µM
[7] = second compound 0.003 µM, first compound 0.316 µM
[8] = second compound 0.003 µM, first compound 1 µM
[9] = second compound 0.00949 µM, first compound 0.0316 µM
[10] = second compound 0.00949 µM, first compound 0.1 µM
[11] = second compound 0.00949 µM, first compound 0.316 µM
[12] = second compound 0.00949 µM, first compound 1 µM
[13] = second compound 0.03 µM, first compound 0.0316 µM
[14] = second compound 0.03 µM, first compound 0.1 µM
[15] = second compound 0.03 µM, first compound 0.316 µM
[16] = second compound 0.03 µM, first compound 1 µM
[17] = second compound 0.0949 µM, first compound 0.0316 µM
[18] = second compound 0.0949 µM, first compound 0.1 µM
[19] = second compound 0.0949 µM, first compound 0.316 µM
[20] = second compound 0.0949 µM, first compound 1 µM
[21] = second compound 0.3 µM, first compound 0.0316 µM
[22] = second compound 0.3 µM, first compound 0.1 µM
[23] = second compound 0.3 µM, first compound 0.316 µM
[24] = second compound 0.3 µM, first compound 1 µM
[25] = second compound 0.000949 µM, first compound 3.16 µM
[26] = second compound 0.000949 µM, first compound 10 µM
[27] = second compound 0.003 µM, first compound 3.16 µM
[28] = second compound 0.003 µM, first compound 10 µM
[29] = second compound 0.00949 µM, first compound 3.16 µM
[30] = second compound 0.00949 µM, first compound 10 µM
[31] = second compound 0.03 µM, first compound 3.16 µM
[32] = second compound 0.03 µM, first compound 10 µM
[33] = second compound 0.0949 µM, first compound 3.16 µM
[34] = second compound 0.0949 µM, first compound 10 µM
[35] = second compound 0.3 µM, first compound 3.16 µM
[36] = second compound 0.3 µM, first compound 10 µM
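Further: spheroids exposed to compounds for seven days before readout.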
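Wherever viability, T/C is given: 100% = DMSO vehicle control viability.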

- IC50 (second compound 0.000949 µM): 72.8 nM
- IC50 (second compound 0.003 µM): < 3.16 nM
- IC50 (second compound 0.00949 µM): < 3.16 nM
- IC50 (second compound 0.03 µM): < 3.16 nM
- IC50 (second compound 0.0949 µM): < 3.16 nM
- IC50 (second compound 0.3 µM): < 3.16 nM
SMILES: CCN1CCN(Cc2ccc(Nc3ncc(F)c(-c4cc(F)c5nc(C)n(C(C)C)c5c4)n3)nc2)CC1 + CCn1c(-c2cc(N3CCN(C)CC3)cnc2C(C)OC)c2c3cc(ccc31)-c1csc(n1)CC(NC(=O)C1CC1C)C(=O)N1CCCC(N1)C(=O)OCC(C)(C)C2
- viability, T/C (second compound 0.000949 µM, first compound 0.00316 µM): 57.7%
- viability, T/C (second compound 0.000949 µM, first compound 0.01 µM): 57.9%
- viability, T/C [1]: 57%
- viability, T/C [2]: 47.2%
- viability, T/C [3]: 35.4%
- viability, T/C [4]: 31.6%
- viability, T/C (second compound 0.003 µM, first compound 0.00316 µM): 51.7%
- viability, T/C (second compound 0.003 µM, first compound 0.01 µM): 41.4%
- viability, T/C [5]: 51.7%
- viability, T/C [6]: 35.5%
- viability, T/C [7]: 35%
- viability, T/C [8]: 23.9%
- viability, T/C (second compound 0.00949 µM, first compound 0.00316 µM): 41.4%
- viability, T/C (second compound 0.00949 µM, first compound 0.01 µM): 41.4%
- viability, T/C [9]: 31.1%
- viability, T/C [10]: 32.4%
- viability, T/C [11]: 22.3%
- viability, T/C [12]: 18.8%
- viability, T/C (second compound 0.03 µM, first compound 0.00316 µM): 33.2%
- viability, T/C (second compound 0.03 µM, first compound 0.01 µM): 29.2%
- viability, T/C [13]: 28.4%
- viability, T/C [14]: 25.5%
- viability, T/C [15]: 22.7%
- viability, T/C [16]: 18.8%
- viability, T/C (second compound 0.0949 µM, first compound 0.00316 µM): 25.1%
- viability, T/C (second compound 0.0949 µM, first compound 0.01 µM): 23.8%
- viability, T/C [17]: 22%
- viability, T/C [18]: 21.1%
- viability, T/C [19]: 19.4%
- viability, T/C [20]: 15.7%
- viability, T/C (second compound 0.3 µM, first compound 0.00316 µM): 24.1%
- viability, T/C (second compound 0.3 µM, first compound 0.01 µM): 23.3%
- viability, T/C [21]: 20.1%
- viability, T/C [22]: 18.8%
- viability, T/C [23]: 18%
- viability, T/C [24]: 15.6%

- IC50 (second compound 0.000949 µM): 204 nM
- IC50 (second compound 0.003 µM): 38.7 nM
- IC50 (second compound 0.00949 µM): < 31.6 nM
- IC50 (second compound 0.03 µM): < 31.6 nM
- IC50 (second compound 0.0949 µM): < 31.6 nM
- IC50 (second compound 0.3 µM): < 31.6 nM
SMILES: Cc1nc(N2CCC3(CC2)COC(C)C3N)c(CO)nc1Sc1ccnc(N)c1Cl (stereo unspecified) + CCn1c(-c2cc(N3CCN(C)CC3)cnc2C(C)OC)c2c3cc(ccc31)-c1csc(n1)CC(NC(=O)C1CC1C)C(=O)N1CCCC(N1)C(=O)OCC(C)(C)C2
- viability, T/C [1]: 63.1%
- viability, T/C [2]: 53.6%
- viability, T/C [3]: 48.3%
- viability, T/C [4]: 39.5%
- viability, T/C [25]: 33%
- viability, T/C [26]: 28%
- viability, T/C [5]: 51.3%
- viability, T/C [6]: 43.4%
- viability, T/C [7]: 34.3%
- viability, T/C [8]: 27.6%
- viability, T/C [27]: 29.1%
- viability, T/C [28]: 22%
- viability, T/C [9]: 40.5%
- viability, T/C [10]: 34.8%
- viability, T/C [11]: 26.1%
- viability, T/C [12]: 22.2%
- viability, T/C [29]: 20.9%
- viability, T/C [30]: 17.1%
- viability, T/C [13]: 29.1%
- viability, T/C [14]: 28.4%
- viability, T/C [15]: 22.2%
- viability, T/C [16]: 18%
- viability, T/C [31]: 19.8%
- viability, T/C [32]: 16.9%
- viability, T/C [17]: 22.9%
- viability, T/C [18]: 21.2%
- viability, T/C [19]: 20.1%
- viability, T/C [20]: 15.9%
- viability, T/C [33]: 18.3%
- viability, T/C [34]: 17.2%
- viability, T/C [21]: 24.4%
- viability, T/C [22]: 20%
- viability, T/C [23]: 17%
- viability, T/C [24]: 13.8%
- viability, T/C [35]: 16.2%
- viability, T/C [36]: 15.5%

- IC50 (second compound 0.000949 µM): 45 nM
- IC50 (second compound 0.003 µM): < 31.6 nM
- IC50 (second compound 0.00949 µM): < 31.6 nM
- IC50 (second compound 0.03 µM): < 31.6 nM
- IC50 (second compound 0.0949 µM): < 31.6 nM
- IC50 (second compound 0.3 µM): < 31.6 nM
SMILES: NC1c2ccccc2OC12CCN(c1cnc3c(N4CCCc5ncccc54)n[nH]c3n1)CC2 (stereo unspecified) + CCn1c(-c2cc(N3CCN(C)CC3)cnc2C(C)OC)c2c3cc(ccc31)-c1csc(n1)CC(NC(=O)C1CC1C)C(=O)N1CCCC(N1)C(=O)OCC(C)(C)C2
- viability, T/C [1]: 53.3%
- viability, T/C [2]: 42.6%
- viability, T/C [3]: 24.9%
- viability, T/C [4]: 23.5%
- viability, T/C [25]: 17.5%
- viability, T/C [26]: 21.3%
- viability, T/C [5]: 36.7%
- viability, T/C [6]: 27.4%
- viability, T/C [7]: 19.8%
- viability, T/C [8]: 14.2%
- viability, T/C [27]: 16.9%
- viability, T/C [28]: 16.4%
- viability, T/C [9]: 28.7%
- viability, T/C [10]: 21%
- viability, T/C [11]: 16.8%
- viability, T/C [12]: 13.7%
- viability, T/C [29]: 14.5%
- viability, T/C [30]: 14%
- viability, T/C [13]: 21.4%
- viability, T/C [14]: 18%
- viability, T/C [15]: 13.5%
- viability, T/C [16]: 13%
- viability, T/C [31]: 12.9%
- viability, T/C [32]: 14.5%
- viability, T/C [17]: 19.4%
- viability, T/C [18]: 17%
- viability, T/C [19]: 15.5%
- viability, T/C [20]: 13.7%
- viability, T/C [33]: 11.8%
- viability, T/C [34]: 13.9%
- viability, T/C [21]: 17.5%
- viability, T/C [22]: 13.5%
- viability, T/C [23]: 13.6%
- viability, T/C [24]: 13.1%
- viability, T/C [35]: 12%
- viability, T/C [36]: 13.8%
